Measured values: ChEMBL document CHEMBL1144290, “Discovery and structure-activity relationships of novel selective norepinephrine and dual serotonin/norepinephrine reuptake inhibitors” (Bioorg Med Chem Lett, 2005)

What was measured:
[1] = Inhibitory constant determined against Norepinephrine transporter
[2] = Inhibitory constant against Serotonin transporter
[3] = biological target: Sodium-dependent dopamine transporter (Homo sapiens) (UniProt Q01959); assay: Displacement of dopamine by the compound against dopamine transporter was determined at 1000 nM
[4] = biological target: Sodium-dependent serotonin transporter (Homo sapiens) (UniProt P31645); assay: Displacement of serotonin by the compound against serotonin transporter was determined
[5] = Inhibitory constant against Dopamine transporter

Chain of Sodium-dependent dopamine transporter (Homo sapiens) (Q01959 whole entry): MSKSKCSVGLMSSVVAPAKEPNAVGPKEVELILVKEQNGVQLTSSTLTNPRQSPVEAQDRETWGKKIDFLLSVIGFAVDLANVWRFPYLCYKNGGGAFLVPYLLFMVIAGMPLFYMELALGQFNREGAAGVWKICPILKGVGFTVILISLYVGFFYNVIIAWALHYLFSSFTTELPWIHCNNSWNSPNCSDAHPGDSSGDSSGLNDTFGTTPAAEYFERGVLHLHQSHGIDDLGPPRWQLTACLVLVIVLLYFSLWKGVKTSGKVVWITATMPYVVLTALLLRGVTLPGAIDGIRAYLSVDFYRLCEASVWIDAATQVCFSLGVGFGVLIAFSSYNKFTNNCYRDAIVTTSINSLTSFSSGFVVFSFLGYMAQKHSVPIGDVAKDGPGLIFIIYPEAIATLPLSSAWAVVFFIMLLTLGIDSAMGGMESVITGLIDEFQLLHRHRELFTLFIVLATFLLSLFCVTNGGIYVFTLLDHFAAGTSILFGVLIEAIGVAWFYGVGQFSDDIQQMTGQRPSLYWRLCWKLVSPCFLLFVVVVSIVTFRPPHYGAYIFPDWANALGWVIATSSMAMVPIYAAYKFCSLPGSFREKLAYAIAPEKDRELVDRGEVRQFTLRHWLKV
Chain of Sodium-dependent serotonin transporter (Homo sapiens) (P31645 whole entry, looked up): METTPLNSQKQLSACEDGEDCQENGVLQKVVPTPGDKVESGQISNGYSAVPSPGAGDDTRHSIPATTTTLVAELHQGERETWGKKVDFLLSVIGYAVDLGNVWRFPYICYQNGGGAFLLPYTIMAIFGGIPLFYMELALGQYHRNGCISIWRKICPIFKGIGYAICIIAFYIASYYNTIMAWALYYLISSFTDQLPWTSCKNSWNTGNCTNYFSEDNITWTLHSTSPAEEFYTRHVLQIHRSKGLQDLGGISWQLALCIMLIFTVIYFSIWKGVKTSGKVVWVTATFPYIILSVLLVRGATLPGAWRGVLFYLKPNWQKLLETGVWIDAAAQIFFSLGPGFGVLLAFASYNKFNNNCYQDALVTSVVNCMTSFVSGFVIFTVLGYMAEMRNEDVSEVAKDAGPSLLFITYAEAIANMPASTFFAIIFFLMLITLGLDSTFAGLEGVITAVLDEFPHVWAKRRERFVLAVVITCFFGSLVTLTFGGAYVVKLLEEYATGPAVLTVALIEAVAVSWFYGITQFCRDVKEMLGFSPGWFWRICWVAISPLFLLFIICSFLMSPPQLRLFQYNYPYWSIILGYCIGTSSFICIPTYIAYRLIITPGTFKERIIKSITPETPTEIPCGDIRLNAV

Row | Structure (SMILES) | Ki [1] [nM] | Ki [2] [nM] | Ki [3] [nM] | Ki [4] [nM] | Ki [5] [nM]
1 | Cc1ccc(S[C@@H](c2ccccc2)[C@@H]2CNCCO2)cc1 | 364 |  | > 200 | > 100 | 
2 | Cc1ccccc1S[C@@H](c1ccccc1)[C@@H]1CNCCO1 | 8.3 | 0.2 |  |  | 227
3 | COc1ccccc1S[C@@H](c1ccccc1)[C@@H]1CNCCO1 (stereo in doubt; form 2) [listing 1 of 2 here] |  |  | > 200 |  | 
4 | Cc1cccc(S[C@@H](c2ccccc2)[C@@H]2CNCCO2)c1 | 109 | 3.2 | > 200 |  | 
5 | COc1ccccc1S[C@@H](c1ccccc1)[C@@H]1CNCCO1 (stereo in doubt; 14) [listing 2 of 2 here] |  |  | > 200 |  | 
6 | c1ccc(S[C@@H](c2ccccc2)[C@@H]2CNCCO2)cc1 | 17.6 | 36 |  |  | 522
7 | COc1ccccc1S[C@@H](c1ccccc1)[C@@H]1CNCCO1 (stereo in doubt; form 1) [listing 1 of 2 here] |  |  | > 200 |  | 
8 | COc1ccccc1S[C@@H](c1ccccc1)[C@@H]1CNCCO1 (stereo in doubt; form 2) [listing 2 of 2 here] | 24.6 | 1.5 |  |  | 

Continued, values first:

Row | Ki [1] [nM] | Ki [2] [nM] | Ki [3] [nM] | Ki [4] [nM] | Ki [5] [nM] | Structure (SMILES)
9 | 10.7 | 1.2 |  |  |  | COc1ccccc1S[C@@H](c1ccccc1)[C@@H]1CNCCO1 (stereo in doubt; 14) [listing 1 of 2 here]
10 |  |  | > 200 | > 100 |  | CCOc1ccccc1O[C@@H](c1ccccc1)[C@@H]1CNCCO1
11 | 1.7 | 66.2 |  |  |  | COc1ccccc1S[C@@H](c1ccccc1)[C@@H]1CNCCO1 (stereo in doubt; form 1) [listing 2 of 2 here]
